Experimental data taken from a melting point compilation (Tetko et al.; mined from patent text by program, amines drawn as free bases though some values may be those of a salt).

Row | melting point | SMILES
1 | 118 to 120 °C | CC(O)(CCC#N)c1ccc(-c2ccc(F)cc2)cc1 (centres undefined)
2 | 84 to 86 °C | CCOC(=O)c1cc(C)c(Cl)nc1C(=O)OCC
3 | 154 to 156 °C | Cc1cccc2c1CCC(=NO)C2(O)C(F)(F)F (centres undefined)
4 | 157 to 161 °C | CC(C)(C)NC(=O)c1ccccc1C(C(=O)C(C)(C)C)c1ccccc1 (centres undefined)
5 | 73 to 74 °C | CC(C)(COc1ccccc1)C(=O)c1ccc(Br)cc1
6 | 175 to 177 °C | Cn1c(=O)c2c(nc(C=Cc3cccc(N(C(=O)OC(C)(C)C)C(=O)OC(C)(C)C)c3)n2C)n(C)c1=O
7 | 155 to 157 °C | CN(c1ccccc1)N1C(=O)C(Cl)=C(c2ccc(Cl)cc2)C1=O
8 | 91 to 93 °C | CCOC(=O)CCc1cc(-c2ccccc2)nn1Cc1ccc(Cl)cc1Cl
9 | 150 to 151 °C | Cc1ccc(OCCCN2CCC(Cc3ccc4ccccc4n3)CC2)c2c1NC(=O)C2(C)C
10 | 190 to 192 °C | CN1CCN(CCCc2c[nH]c(-c3ccc(F)cc3)c2-c2ccncc2)CC1
11 | 152 to 155 °C | COC(=O)C1=C(C)NC(=O)N(C(=O)OC)C1c1cccc([N+](=O)[O-])c1 (centres undefined)
12 | 104 to 105 °C | O=C(O)CCCCCCCCCCNC(=O)C(CS)Cc1ccccc1 (centres undefined)
13 | 261 to 263 °C | COc1ccc(-c2nc3cccc(C(N)=O)c3[nH]2)cc1
14 | 184 to 185 °C | CCCCCC(CC(=O)Nc1cc(C(=O)NC(=O)c2ccncc2)ccc1C(C)(C)C)c1ccc(OC)cc1OC (centres undefined)
15 | 196 °C | CC1=NN(C(=O)NS(=O)(=O)c2c(F)cccc2F)CC1
16 | 79 to 81 °C | CS(=O)(=O)c1n[nH]c(NCCCCOc2cccc(CN3CCCCC3)c2)n1
17 | 193 to 195 °C | COC(=O)c1ccc(C)c(-n2c(C)cc(OCc3ccccc3CNC(=O)Nc3cc(C(C)(C)C)nn3-c3ccc(Cl)c(O)c3)c(Cl)c2=O)c1
18 | 114 °C | NC(=O)CC1CN(Cc2ccccc2)CCN1Cc1ccccc1 (centres undefined)
19 | 141 to 142 °C | COc1ccc(Oc2ccc(F)cc2)cc1C#CC(C)N(O)C(N)=O (centres undefined)
20 | 88.5 to 90 °C | CCCCCCCCCCCCSC1C=NNC1=O (centres undefined)
21 | 287 to 290 °C | C[C@H](CS(C)(=O)=O)NC(=O)c1c[nH]c2ncc(-c3nn(C)c4cc(Cl)ccc34)nc12
22 | 49 to 52 °C | COc1cn(C(C)c2ccccc2)c(=O)o1 (centres undefined)
23 | 127 to 132 °C | CCOC(=O)/C=C(C)/C(F)=C/C=C(C)/C=C/c1c(Cl)cc(OC)c(C)c1Cl
24 | 270 to 271 °C | CC(C)CCCC(C)C1CCC2(C#N)C3C(O)CC4C(C)(C)C(OC(=O)c5ccccc5)CCC4(C)C3CCC12C (centres undefined)

Row | melting point | SMILES
25 | 212 to 214 °C | COc1ccc2c(c1)CCC(C(O)C(=O)O)C2=O (centres undefined)
26 | 140 to 143 °C | CC(C)(C)COc1ccc(N(CC(=O)O)C(=O)c2cccn2-c2ccc(F)cc2)cc1C#N
27 | 121 °C | O=C1SC2CCN(Cc3ccccc3Cl)CC2=C1O (centres undefined)
28 | 202 to 203 °C | COc1ccc2c(c1)C(c1ccc(Cl)cc1)=C1CCC(=S)NC12 (centres undefined)
29 | 132 to 133 °C | OCc1cc2c3ccccc3ncn2n1
30 | 148 to 149 °C | CC(C)(C)OC(=O)Nc1ccc(I)cc1
31 | 182 °C | CN(C1CCSCC1)S(=O)(=O)c1ccc(Nc2nccc(Nc3ccc(F)cc3)n2)cc1
32 | 133 to 134 °C | c1ccc(-c2cc(N3CCNCC3)nc3ccccc23)cc1
33 | 127 °C | COc1ccc(OC)c(C(=S)N2CCOCC2)c1
34 | 154 to 160 °C | COc1ccc2c(c1)N(c1ccc(F)cc1)C(=O)C2(CCc1nnn[nH]1)NC(=O)c1cc2ccccc2cn1 (centres undefined)
35 | 86 to 88 °C | Oc1cccc2c1SCCC2
36 | 54 to 55 °C | O=C(c1ccccc1)n1ccc2ccccc21
37 | 115 to 116 °C | CSc1cnn(C(C)(C)C)c(=O)c1C
38 | 300 °C | Cn1c(=O)[nH]c(=O)c2nc(-c3ccc(/C=C/C(=O)O)cc3)[nH]c21
39 | 227 °C | Cn1c(-c2ccc(OCC(=O)O)cc2)nc2c3ccccc3ccc21
40 | 160 to 162 °C | O=C(Nc1nc(-c2ccco2)c(C(=O)C2CCOCC2)s1)c1ccc(CN2CCCCC2)cc1
41 | 74 to 76 °C | CC(=O)CCCCCCCCc1ccc(O)c(O)c1
42 | 136 to 140 °C | CSc1c(CC(=O)O)n(Cc2ccc(Cl)cc2)c2ccc(CF)cc12
43 | 109 to 112 °C | CS(=O)(=O)Nc1ccc2c(c1)C(=O)CC1(CCN(CCc3ccc(N)c(N)c3)CC1)O2
44 | 188 to 191 °C | O=CNNc1ccc(NS(=O)(=O)c2cccc([N+](=O)[O-])c2)cc1
45 | 262 °C | CCCCn1c2ccc(C)cc2c(=O)c2c1cnn2C
46 | 250 to 252 °C | CCOCc1nc2c(N)nc3cc(-c4cccnc4)ccc3c2n1CCCCS(N)(=O)=O
47 | 66 to 67 °C | CC(=O)Cc1nc(CN2CCCCC2)no1
48 | 45 to 48 °C | CC(C)(C)OC(=O)N1CCC(C(=O)Nc2ccccc2Oc2ccc(OC(F)(F)F)cc2)CC1

Row | melting point | SMILES
49 | 92 to 99 °C | O=C(O)Cc1ccc(OCCNC(=O)C2Cc3ccccc3N2S(=O)(=O)c2ccc(-c3ccc(F)cc3F)cc2)cc1 (centres undefined)
50 | 176 °C | O=C(O)c1cccc(F)c1Nc1ccccc1F
51 | 189 to 191 °C | Cn1nc(O[C@@H]2c3cc(C(F)(F)C(F)(F)F)ccc3OC(CF)(CF)[C@H]2O)ccc1=O (relative stereo)
52 | 173 to 175 °C | CNC(=O)/C=C1\CCc2c(Cl)cc(F)cc21
53 | 45 to 47 °C | O=C(O)CCCCCCN(Cc1ccccc1)C(=O)c1cn2c3c(cccc13)CCC2
54 | 137 to 139 °C | COc1ccc(C2=NN(c3ccc(CCO)cc3)C(=O)[C@H]3CC=CC[C@@H]23)cc1OC (relative stereo)
55 | 128 to 129 °C | O=c1c2ccccc2ncn1C1CCN(CCC(CC(F)(F)F)c2ccccc2)CC1 (centres undefined)
56 | 257 to 258 °C | Clc1nc2ccccc2c2[nH]cnc12
57 | 97 to 98 °C | CCOC(=O)COc1c(C)cc(C(OC)(C(F)(F)F)C(F)(F)F)cc1C
58 | 47 to 49 °C | O=C(CCCCC1(c2ccccc2)CC(O)=C(SCCc2ccccc2)C(=O)O1)NCc1ccccc1 (centres undefined)
59 | 78 to 79 °C | CC(C)OC(=O)N(O)CCN1CCCCC1
60 | 187 to 189 °C | OCc1ccc2c(c1)Nc1nccnc1S2
61 | 268 to 270 °C | CCC(c1oc2ccccc2c(=O)c1-c1cccc(F)c1)n1nc(-c2ccc3c(C)n[nH]c3c2)c2c(N)ncnc21 (centres undefined)
62 | 92 to 94 °C | O=S(Cc1ccccn1)c1ccc(F)cc1 (centres undefined)
63 | 104 to 105 °C | Cc1cc(C(C)(C)C)c(O)c([N+](=O)[O-])c1[N+](=O)[O-]
64 | 159 to 160 °C | CCCn1nc(C(C)C)c(C(=O)OCC)c1Cc1ccc(-c2ccccc2S(=O)(=O)NC(=O)c2ccccc2)cc1
65 | 138 to 140 °C | COc1cccc(-c2cccc(C(N)=O)c2)c1
66 | 162 to 164 °C | Nc1cc(-c2ccccc2)nc2ccccc12
67 | 155 to 157 °C | Cc1nc2ccccc2n2c(-c3cc(OCC(F)c4ccccn4)ccc3Cl)nnc12 (centres undefined)
68 | 110 to 112 °C | O=C(Nc1ccc(Oc2ccnc(NC3CCC3)n2)c2ccccc12)c1cc(F)cc(N2CCOCC2)c1
69 | 125 to 126 °C | O=C1C(Br)CCN1c1ccc(OCc2ccccc2)cc1 (racemic)
70 | 53 to 65 °C | CC(=NOCCOc1ccc(CC2SC(=O)NC2=O)cc1)c1cc(C)c(O)c(C)c1 (centres undefined)
71 | 95 to 97 °C | CC(C)c1ccc(C2(O)C(=O)c3ccccc3C2=O)c(OC(=O)C=Cc2ccccc2)c1
72 | 197 to 200 °C | O=C1CCNC(=O)C1C(=O)c1ccc(C(F)(F)F)cc1 (centres undefined)

Row | melting point | SMILES
73 | 67 °C | CCCCC(Cc1ccc(OCCN(CC)CC)cc1)(C(=O)O)S(=O)(=O)c1ccc(OC)cc1 (centres undefined)
74 | 135 to 137 °C | CNC(=O)C1OC(n2cnc3c(NCc4cc(Cl)ccc4OCc4cc(C)no4)ncnc32)C(O)C1NC(=O)OC(C)(C)C (centres undefined)
75 | 159 to 161 °C | COC(=O)c1ccc(N2CCCC2=O)c([N+](=O)[O-])c1
76 | 199 °C | CCC(C)Nc1c(-c2c(F)cc(F)cc2F)c(F)nc2ncncc12 (centres undefined)
77 | 174 to 175 °C | N#Cc1ncn2c1N(C(=O)CN1CCC(c3ccccc3)CC1)CC=C2c1cccc(C(F)(F)F)c1
78 | 174 to 177 °C | N#CNC(=Nc1ccncc1)NCCOc1ccc(Cl)cc1
79 | 133 to 135 °C | CCC(C)(C)Nc1c(-c2ccc(OC)cc2)c(=O)c1=O
80 | 61 to 62 °C | COCCN1CCN(C(C)c2ccc(-c3ccc(F)cc3)cc2)CC1 (centres undefined)
81 | 169 to 170 °C | OCCNc1c(Br)cnc2cc(Cl)ccc12
82 | 114 to 116 °C | CC(C)(Oc1ccccc1S(C)(=O)=O)C(=O)O
83 | 191 to 192 °C | O=C(C#Cc1ccc(CN2CCC(N3CCCC3)CC2)cc1)Nc1ccc(-c2ccc(Cl)cc2)cc1
84 | 207 °C | CCCCc1[nH]c(CC)nc(=O)c1Cc1ccc(-c2ccccc2C(=O)O)cc1
85 | 220 to 222 °C | O=C(O)COc1ccc(-c2nn(-c3ccccc3)c3ncccc23)cc1
86 | 141 to 143 °C | CN(CCN1CCNC1=O)Cc1cn(-c2ccc(F)cc2)c2ccc(Cl)cc12
87 | 265 to 275 °C | c1ccc(COc2ccc3nc(-c4ccc(OCc5ccccc5)c(C56CC7CC(CC(C7)C5)C6)c4)[nH]c3c2)cc1
88 | 90 to 94 °C | COc1cc2c(cc1[N+](=O)[O-])C(C)CC1c3ccccc3CC1(C)C2 (centres undefined)
89 | 249 to 252 °C | CC1(C)COC(=O)N1c1nc(-c2csc(C#N)c2)cs1
90 | 250 °C | O=C(Nc1ccccc1O)c1ccc(CS(=O)(=O)c2ccc(O)cc2)cc1
91 | 259 to 262 °C | COc1ccc2c(Cc3c(Cl)cncc3Cl)n[nH]c(=O)c2c1
92 | 82 to 84 °C | CCOC(=O)C1CCc2cc3ccccc3n2C1=O (centres undefined)
93 | 55 to 57 °C | O=C1CCSc2cc(Br)ccc21
94 | 132 to 134 °C | Cc1cc(C)c(Nc2nc(C)ccc2S(=O)(=O)c2ccc(OCc3c(F)cccc3[N+](=O)[O-])cc2)c(C)c1

Row | SMILES | melting point
95 | O=[N+]([O-])c1ccc(C23CCN(CC2)CC3)cc1 | 130 to 135 °C
96 | Fc1cccc(-c2cn([C@H]3CN4CCC3CC4)nn2)c1 | 120 °C
97 | c1ccc(N2c3ccccc3[C@@H]3CNCC[C@H]32)cc1 | 74 to 76 °C
98 | Cn1c(C(N)=O)c2n(c1=O)-c1ccc(Cl)cc1C(c1ccccc1Cl)=NC2 | 158 to 160 °C
99 | NC1Cc2cccc3[nH]c(=O)n(c23)C1 (centres undefined) | > 300 °C
